Here are results for 13 compounds from ChEMBL document CHEMBL3774335, “Tactical Approaches to Interconverting GPCR Agonists and Antagonists” (J Med Chem, 2016).

Test [1] has as its target T1, Type-2 angiotensin II receptor (Homo sapiens, UniProt P50052).
T1 sequence (P50052 whole entry): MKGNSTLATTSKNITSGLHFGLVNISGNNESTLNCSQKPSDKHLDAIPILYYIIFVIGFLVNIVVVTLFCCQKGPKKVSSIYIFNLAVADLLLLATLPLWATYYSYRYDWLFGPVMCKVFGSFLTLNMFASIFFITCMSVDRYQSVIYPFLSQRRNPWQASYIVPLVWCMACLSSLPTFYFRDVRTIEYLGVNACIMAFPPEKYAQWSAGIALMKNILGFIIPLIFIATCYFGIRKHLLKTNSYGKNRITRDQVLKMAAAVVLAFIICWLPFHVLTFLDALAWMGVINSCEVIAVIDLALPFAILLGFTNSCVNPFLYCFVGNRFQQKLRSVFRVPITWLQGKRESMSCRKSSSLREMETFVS
Put plainly: Binding affinity to angiotensin II receptor (unknown origin).

A further test concerns the target Vasopressin V2 receptor (Homo sapiens, UniProt P30518). Kind of test: Displacement of [3H]AVP from human Vasopressin V2 receptor expressed in HeLa cells after 2 hrs by liquid scintillation counter. The format is cell-based.
A further test has as its target Melanocortin receptor 4 (Homo sapiens, UniProt P32245). Put plainly: Displacement of 125I-NDP-a-MSH from human Melanocortin receptor 4 after 2 hrs by TopCount microplate scintillation and luminescence counter.
A short description of test [2]: Displacement of 125I-[Sar1, Ile8] AngII from rat AT1 receptor expressed in COS1 cells. The note with it: cos-1. The format is cell-based.
Another test has as its target T2, B2 bradykinin receptor (Homo sapiens, UniProt P30411).
T2 sequence (P30411 whole entry): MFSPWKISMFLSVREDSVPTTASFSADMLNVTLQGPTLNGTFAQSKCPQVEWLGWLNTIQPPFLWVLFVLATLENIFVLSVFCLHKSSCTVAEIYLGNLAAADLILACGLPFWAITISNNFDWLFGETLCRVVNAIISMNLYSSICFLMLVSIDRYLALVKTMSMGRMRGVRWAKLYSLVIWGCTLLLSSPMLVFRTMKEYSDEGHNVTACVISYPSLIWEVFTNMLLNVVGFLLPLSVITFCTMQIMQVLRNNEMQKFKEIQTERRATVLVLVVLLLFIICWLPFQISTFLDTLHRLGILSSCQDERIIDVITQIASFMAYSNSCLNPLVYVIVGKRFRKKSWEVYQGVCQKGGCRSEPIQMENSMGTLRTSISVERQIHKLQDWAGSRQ
Put plainly: Displacement of [3H]BK from cloned human B2 bradykinin receptor expressed in CHO cells after 2 hrs by liquid scintillation counter. The format is cell-based.

For test [3], the target named is Histamine H3 receptor (Homo sapiens) (UniProt Q9Y5N1). Kind of test: Partial agonist activity at human histamine H3 receptor expressed in SK-N-MC cells by beta-galactosidase reporter gene assay relative to histamine. Format: cell-based.
The target is the same in test [4]. Kind of test: Inverse agonist activity at human histamine H3 receptor expressed in SK-N-MC cells by beta-galactosidase reporter gene assay relative to histamine. The format is cell-based.

Sequence of Histamine H3 receptor (Homo sapiens) (Q9Y5N1 whole entry): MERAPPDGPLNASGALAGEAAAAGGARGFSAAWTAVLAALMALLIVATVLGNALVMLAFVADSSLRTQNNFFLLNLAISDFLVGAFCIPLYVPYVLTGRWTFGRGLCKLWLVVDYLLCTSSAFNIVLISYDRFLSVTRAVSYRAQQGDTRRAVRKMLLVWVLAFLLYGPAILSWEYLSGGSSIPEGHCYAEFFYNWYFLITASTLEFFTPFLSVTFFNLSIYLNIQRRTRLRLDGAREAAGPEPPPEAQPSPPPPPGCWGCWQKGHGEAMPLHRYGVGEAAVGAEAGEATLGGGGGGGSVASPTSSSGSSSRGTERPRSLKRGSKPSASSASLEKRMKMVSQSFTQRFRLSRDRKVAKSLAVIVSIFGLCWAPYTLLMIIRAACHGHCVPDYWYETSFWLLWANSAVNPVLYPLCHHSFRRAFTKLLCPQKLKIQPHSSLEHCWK
Sequence of Melanocortin receptor 4 (P32245 whole entry): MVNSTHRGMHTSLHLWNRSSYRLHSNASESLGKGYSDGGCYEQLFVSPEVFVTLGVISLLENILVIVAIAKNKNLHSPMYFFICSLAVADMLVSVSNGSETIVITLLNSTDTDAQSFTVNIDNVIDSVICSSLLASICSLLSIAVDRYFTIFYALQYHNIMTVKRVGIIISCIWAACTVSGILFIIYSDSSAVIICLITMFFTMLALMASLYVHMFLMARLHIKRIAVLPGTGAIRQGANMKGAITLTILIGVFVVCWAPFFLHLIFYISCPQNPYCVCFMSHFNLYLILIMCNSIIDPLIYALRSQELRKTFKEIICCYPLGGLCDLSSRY
Sequence of Vasopressin V2 receptor (P30518 whole entry): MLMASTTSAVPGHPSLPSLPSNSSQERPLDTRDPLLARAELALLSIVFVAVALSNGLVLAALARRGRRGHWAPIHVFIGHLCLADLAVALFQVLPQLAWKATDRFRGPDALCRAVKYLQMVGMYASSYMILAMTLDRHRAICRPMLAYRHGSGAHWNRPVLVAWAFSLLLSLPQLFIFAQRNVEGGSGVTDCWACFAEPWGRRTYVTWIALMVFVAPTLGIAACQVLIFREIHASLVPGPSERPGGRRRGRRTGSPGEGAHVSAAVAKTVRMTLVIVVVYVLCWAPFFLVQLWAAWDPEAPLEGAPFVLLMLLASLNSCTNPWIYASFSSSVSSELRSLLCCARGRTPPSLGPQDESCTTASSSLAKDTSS

In test [1], `CCCCOC(=O)NS(=O)(=O)c1ccc(CCC)cc1-c1ccc(Cn2c(CC)nc3c(C)cc(C)nc32)cc1` returned a Ki of 1.5 nM.

At Vasopressin V2 receptor, `Cc1cc(N)ccc1C(=O)N1CCCCc2cc(Cl)ccc21` had an IC50 of 18 nM.

The compound `CCN(C(C)=O)C(C)c1ccccc1N1CCN(C(=O)[C@H](CC(=O)N2CCN(C(=O)OC(C)(C)C)CC2)Cc2ccc(Cl)cc2)CC1` (stereo partly drawn) returned a Ki on Melanocortin receptor 4 of 2 nM.

`CCCc1nc(C(C)(C)O)c(C(N)=O)n1Cc1ccc(-c2ccccc2-c2nnn[nH]2)cc1` showed a Kd in test [2] of 0.8 nM.

On B2 bradykinin receptor, `Cc1cc(OCc2ccccn2)c2cccc(OCc3c(Cl)ccc(N(C)C(=O)CNC(=O)/C=C/c4ccc(/C=C/c5ccncc5)nc4)c3Cl)c2n1` gave an IC50 of 0.36 nM.

With `c1nc(CCC2CCNCC2)c[nH]1`, the Intrinsic activity in test [3] came out at 60%.

On to `c1nc(CCC2CCCNC2)c[nH]1` (stereo not drawn), for which the Intrinsic activity in test [3] worked out at 34%.

In turn, `CCCc1nc(C(C)(C)O)c(C(=O)O)n1Cc1ccc(-c2cc(Cc3ccc(O)cc3)ccc2-c2nnn[nH]2)cc1` gave a Kd in test [2] of 21 nM.

Take `c1nc(CCCC2CCCNC2)c[nH]1` (stereo not drawn): the Intrinsic activity in test [4] was 29%.

In test [2], `CCCc1nc(C(C)(C)O)c(C(N)=O)n1Cc1ccc(-c2cc(Cc3ccc(O)cc3)ccc2-c2nnn[nH]2)cc1` showed a Kd of 48 nM.

For the compound `CCCc1nc(C(C)(C)O)c(C(=O)O)n1Cc1ccc(-c2ccccc2-c2nnn[nH]2)cc1` [OLMESARTAN], binding in test [2] was characterised by a dissociation constant (Kd) of 2.3 nM. This Kd is about 21-fold lower than that of the compound before.

Turning to `CCN(C(C)=O)C(C)c1ccccc1N1CCN(C(=O)[C@H](CC(=O)NC2CCC2)Cc2ccc(Cl)cc2)CC1` (stereo partly drawn), the affinity at Melanocortin receptor 4, expressed as Ki, was 6 nM.

Compound `CCCCOC(=O)NS(=O)(=O)c1ccc(CC(C)C)cc1-c1ccc(Cn2c(CC)nc3c(C)cc(C)nc32)cc1` gave an inhibition constant (Ki) in test [1] of 2.1 nM.
